pIC50: −log10 of the molar value.
What was measured:
[1] = test system: red blood cell (RBC); conditions: cited from earlier work
[2] = test system: S. aureus; conditions: cited from earlier work
[3] = test system: MRSA USA300 type strain; conditions: mice infected with MRSA USA300 type strain, applied multiple times; cited from earlier work
[4] = molecular target: T1, AgrA (Staphylococcus aureus, UniProt P0A0I7); conditions: all four agr groups; cited from earlier work
T1 construct: endogenous in cells; host or cells: S. aureus USA300 strain UAMS-1625 carrying a P3-lacZ reporter plasmid
T1 sequence (P0A0I7 whole entry): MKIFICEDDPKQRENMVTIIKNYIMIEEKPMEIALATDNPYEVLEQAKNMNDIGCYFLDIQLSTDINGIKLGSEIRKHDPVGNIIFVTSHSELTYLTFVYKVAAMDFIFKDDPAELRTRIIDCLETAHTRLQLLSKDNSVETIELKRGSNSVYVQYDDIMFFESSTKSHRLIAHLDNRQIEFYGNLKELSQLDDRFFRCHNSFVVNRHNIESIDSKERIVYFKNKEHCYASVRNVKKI

[5] = test system: S. aureus; conditions: after multiple passages with Savirin; cited from earlier work
[6] = molecular target: T1, AgrA; test: cell-based; parameters: species or system S. aureus

In the case of CC(C)c1ccc(S(=O)(=O)c2nnn3c2nc(O)c2ccccc23)cc1 [Savirin], the “exotoxin-induced red blood cell (RBC) lysis” value [1] is given as “inhibited”, the “viability of S. aureus” value [2] is given as “without affecting viability” and the “abscess size and dermonecrosis” value [3] is given as “significant reduction”. The “modulation of AgrA-regulated toxin gene transcription (hla, psma, pvl)” value [4] was “potent modulator” and the resistance development [5] was “No resistance was developed”.
Compound CCNC(=O)CN1CCN(c2ccc3c(=O)[nH]c4c(S(=O)(=O)c5ccc(C)cc5C)nnn4c3c2)CC1 [Compound 4] has a pIC50 ([6]; IC50 at 40 mg/mL HSA, LB medium supplemented with human serum albumin 40 mg/mL) of over 4.72 and a pIC50 ([6]; IC50 without HSA, LB medium, no human serum albumin, 18 hours incubation) of over 5.72.
For Cc1ccc(S(=O)(=O)c2nnn3c2[nH]c(=O)c2ccc(N4CCCN(CC(=O)NC5CCN(C)CC5)CC4)cc23)c(C)c1 [Compound 102], the “Ratio IC50 (in presence of HSA)/IC50 (in absence of HSA)” value ([6]; 40 mg/mL HSA versus no HSA) was “+++ (+++: ratio ≤ 25)”, the “IC50 at 40 mg/mL HSA” value ([6]; LB medium supplemented with human serum albumin 40 mg/mL) was “++ (++: 10 μg/mL < IC50 ≤ 50 μg/mL)” and the “IC50 without HSA” value ([6]; LB medium, no human serum albumin, 18 hours incubation) was “++ (++: 1 μg/mL < IC50 ≤ 5 μg/mL)”.

From US20250376472A1, “3-(PHENYLSULFONYL)-[1,2,3]TRIAZOLO[1,5A]QUINAZOLIN-5(4H)-ONE DERIVATIVES” (priority 2022, published 2025)
